Earlier results, collected in patent US11285134B2, “Presbyopia treatments” (Allergan, Inc., priority 2018, dated 2022).
Read-outs that look alike come from different tables or passages of the source.

System: patients with glaucoma
Conditions: 1-week treatment

Question: With CC[C@@H]1C(=O)OC[C@@H]1Cc1cncn1C [pilocarpine] as the compound, how does the “mean percent fall in IOP from baseline” value (1% dose strength) read?
Answer: The value was 17.5%.

Question: And the “mean percent fall in IOP from baseline” value (4% dose strength)?
Answer: Its value is 26.8%.

Question: And the “mean percent fall in IOP from baseline” value (8% dose strength)?
Answer: Its value is 29.1%.
